Here are results for 1 molecule from ChEMBL document CHEMBL1201862, “PubChem BioAssay data set” (2004).

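All cell lines were grown in 96-well plates and treated with compound for 48 hours. Here, GI50 denotes the concentration required for 50% inhibition of growth.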 Calls of active or inactive are those of the source. No stated cut-off is given here; in the data, active = GI50 up to about 1.1 µM and inactive = higher.

Among the test systems are SK-OV-3; HOP-62; OVCAR-4; HCT-15; UACC-62; 786-0; ACHN; A549; HCT-116; Malme-3M; HOP-92; NCI-H23; UACC-257; OVCAR-3; SN12C; SNB-75; SK-MEL-28; OVCAR-8; SK-MEL-5; KM12.
Test in all cases: DTP human tumour cell line panel, 48 h

In the case of `C[C@]12CC[C@H](O[C@@H]3O[C@H](CO[C@@H]4O[C@H](CO)[C@@H](O)[C@H](O)[C@H]4O)[C@@H](O)[C@H](O)[C@H]3O)C[C@@H]1CC[C@@H]1[C@@H]2CC[C@]2(C)[C@@H](C3=CC(=O)OC3)CC[C@]12O` [UZARIN], the GI50 in the assay with SK-OV-3 was 35.3 µM (inactive); with HOP-62, 13.7 µM (inactive); in the assay with OVCAR-4, 17.3 µM (inactive); in the assay with HCT-15, 18.2 µM; in the assay on UACC-62 it was 33.7 µM (inactive); with 786-0, 43.6 µM (inactive). Further, the GI50 in the assay with ACHN is 8.57 µM (inactive); in the assay with A549, 5.33 µM (inactive); in the assay on HCT-116, 9.06 µM (inactive); in the assay on Malme-3M, 17.5 µM (inactive); in the assay on HOP-92 it was 29.4 µM (inactive); in the assay on NCI-H23, 11.1 µM (inactive). For the same molecule, the GI50 in the assay with UACC-257 was 31.3 µM (inactive); in the assay on OVCAR-3 it was 23.3 µM (inactive); in the assay with SN12C it was 20.1 µM (inactive); in the assay with SNB-75 it was 28.4 µM (inactive); in the assay with SK-MEL-28, > 80 µM (inactive); in the assay on OVCAR-8 it was 31.8 µM (inactive). The values for the GI50 in the assay with SK-MEL-5 and with KM12 were 4.62 µM (inactive) and 47.8 µM (inactive), respectively.

As usually defined, the GI50 is the concentration giving 50% growth inhibition.
